Results reported in the supplement of paper PMC12076712.

Legend:
Assay in all cases: pIC50, kinobeads binding competition
Details in all cases: cell material: Jurkat lysate
[1] = biological target: SYK (UniProt P43405)
[2] = biological target: T1, ICK (UniProt Q9UPZ9)
T1 sequence (whole entry): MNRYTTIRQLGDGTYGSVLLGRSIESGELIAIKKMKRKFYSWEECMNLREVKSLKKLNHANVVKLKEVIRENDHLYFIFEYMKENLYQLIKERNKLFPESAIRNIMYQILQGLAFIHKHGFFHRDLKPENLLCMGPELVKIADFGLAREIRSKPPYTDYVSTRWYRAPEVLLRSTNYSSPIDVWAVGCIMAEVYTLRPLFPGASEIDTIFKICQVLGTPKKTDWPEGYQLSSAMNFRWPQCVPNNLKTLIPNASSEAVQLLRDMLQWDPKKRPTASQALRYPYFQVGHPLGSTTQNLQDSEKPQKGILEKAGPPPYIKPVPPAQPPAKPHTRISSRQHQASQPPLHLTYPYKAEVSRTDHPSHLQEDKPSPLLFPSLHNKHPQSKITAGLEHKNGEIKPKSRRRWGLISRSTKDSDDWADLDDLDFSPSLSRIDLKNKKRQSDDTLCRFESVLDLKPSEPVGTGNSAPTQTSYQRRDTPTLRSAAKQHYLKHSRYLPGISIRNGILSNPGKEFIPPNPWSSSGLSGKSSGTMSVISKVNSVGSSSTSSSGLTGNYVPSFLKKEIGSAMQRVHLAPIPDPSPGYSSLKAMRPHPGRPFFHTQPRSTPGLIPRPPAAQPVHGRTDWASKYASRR

[3] = biological target: PAK2 (UniProt Q13177)
[4] = biological target: PRKCH (UniProt P24723)
Sequence of PRKCH (P24723 whole entry, looked up): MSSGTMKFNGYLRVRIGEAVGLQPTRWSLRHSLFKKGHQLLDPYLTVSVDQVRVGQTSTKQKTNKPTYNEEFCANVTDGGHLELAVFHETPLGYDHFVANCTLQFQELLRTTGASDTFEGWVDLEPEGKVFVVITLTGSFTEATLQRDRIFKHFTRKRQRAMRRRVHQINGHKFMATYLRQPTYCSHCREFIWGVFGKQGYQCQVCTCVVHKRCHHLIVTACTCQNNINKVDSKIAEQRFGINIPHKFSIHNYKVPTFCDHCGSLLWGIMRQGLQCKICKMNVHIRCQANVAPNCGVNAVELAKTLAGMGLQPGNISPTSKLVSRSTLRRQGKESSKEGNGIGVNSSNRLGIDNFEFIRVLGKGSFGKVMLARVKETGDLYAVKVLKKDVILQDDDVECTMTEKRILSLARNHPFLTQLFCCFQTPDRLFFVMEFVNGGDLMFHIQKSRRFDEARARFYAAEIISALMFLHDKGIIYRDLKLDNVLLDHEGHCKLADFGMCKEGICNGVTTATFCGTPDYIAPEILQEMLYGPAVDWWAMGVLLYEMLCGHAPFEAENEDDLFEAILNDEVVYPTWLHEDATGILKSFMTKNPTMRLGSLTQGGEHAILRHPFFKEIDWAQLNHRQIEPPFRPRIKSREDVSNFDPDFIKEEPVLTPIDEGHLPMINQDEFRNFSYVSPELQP

[5] = biological target: UniProt Q5VT25
Sequence of UniProt Q5VT25 (Q5VT25 whole entry): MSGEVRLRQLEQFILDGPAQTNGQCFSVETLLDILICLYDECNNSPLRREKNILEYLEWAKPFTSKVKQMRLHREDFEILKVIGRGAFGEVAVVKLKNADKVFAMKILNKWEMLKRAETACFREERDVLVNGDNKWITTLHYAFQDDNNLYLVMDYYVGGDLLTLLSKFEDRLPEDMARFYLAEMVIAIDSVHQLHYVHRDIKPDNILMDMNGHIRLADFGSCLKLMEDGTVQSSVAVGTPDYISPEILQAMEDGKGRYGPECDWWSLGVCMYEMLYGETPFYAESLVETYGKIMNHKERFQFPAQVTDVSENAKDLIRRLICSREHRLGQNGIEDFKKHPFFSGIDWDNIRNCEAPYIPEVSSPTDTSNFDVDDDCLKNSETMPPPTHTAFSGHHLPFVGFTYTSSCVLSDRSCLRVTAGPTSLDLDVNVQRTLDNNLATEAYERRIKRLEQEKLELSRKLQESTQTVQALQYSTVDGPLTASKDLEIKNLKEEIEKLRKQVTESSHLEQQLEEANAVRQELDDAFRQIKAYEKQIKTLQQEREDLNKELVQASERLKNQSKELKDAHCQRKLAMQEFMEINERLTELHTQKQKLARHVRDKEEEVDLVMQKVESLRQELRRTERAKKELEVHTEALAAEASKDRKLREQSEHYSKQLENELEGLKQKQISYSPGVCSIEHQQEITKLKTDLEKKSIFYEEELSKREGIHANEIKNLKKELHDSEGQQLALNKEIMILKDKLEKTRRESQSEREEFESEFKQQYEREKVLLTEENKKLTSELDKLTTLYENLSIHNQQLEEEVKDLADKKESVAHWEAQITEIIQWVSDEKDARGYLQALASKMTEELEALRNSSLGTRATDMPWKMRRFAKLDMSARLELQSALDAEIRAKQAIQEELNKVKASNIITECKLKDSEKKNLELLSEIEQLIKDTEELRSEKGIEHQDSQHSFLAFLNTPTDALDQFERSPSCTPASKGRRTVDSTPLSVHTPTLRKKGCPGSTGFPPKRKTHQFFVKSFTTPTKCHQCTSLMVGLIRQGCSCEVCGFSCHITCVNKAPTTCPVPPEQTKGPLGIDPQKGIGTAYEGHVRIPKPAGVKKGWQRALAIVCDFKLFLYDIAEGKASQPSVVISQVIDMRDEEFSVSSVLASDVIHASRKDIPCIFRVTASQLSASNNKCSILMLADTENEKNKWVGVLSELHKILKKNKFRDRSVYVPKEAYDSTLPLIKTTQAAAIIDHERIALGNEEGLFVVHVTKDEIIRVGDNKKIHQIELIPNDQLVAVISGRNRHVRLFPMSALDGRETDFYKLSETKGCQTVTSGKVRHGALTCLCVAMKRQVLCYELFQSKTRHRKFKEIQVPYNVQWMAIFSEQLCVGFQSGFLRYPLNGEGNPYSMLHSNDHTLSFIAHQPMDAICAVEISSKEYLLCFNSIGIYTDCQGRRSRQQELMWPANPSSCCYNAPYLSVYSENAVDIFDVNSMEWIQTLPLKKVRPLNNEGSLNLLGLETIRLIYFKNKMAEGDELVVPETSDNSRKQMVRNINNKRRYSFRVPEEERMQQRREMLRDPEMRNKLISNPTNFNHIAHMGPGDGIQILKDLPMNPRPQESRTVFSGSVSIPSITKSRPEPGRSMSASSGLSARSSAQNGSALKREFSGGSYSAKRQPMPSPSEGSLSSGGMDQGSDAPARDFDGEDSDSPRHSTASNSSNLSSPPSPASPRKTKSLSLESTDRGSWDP

[6] = biological target: T2, UniProt O14920
T2 sequence (whole entry): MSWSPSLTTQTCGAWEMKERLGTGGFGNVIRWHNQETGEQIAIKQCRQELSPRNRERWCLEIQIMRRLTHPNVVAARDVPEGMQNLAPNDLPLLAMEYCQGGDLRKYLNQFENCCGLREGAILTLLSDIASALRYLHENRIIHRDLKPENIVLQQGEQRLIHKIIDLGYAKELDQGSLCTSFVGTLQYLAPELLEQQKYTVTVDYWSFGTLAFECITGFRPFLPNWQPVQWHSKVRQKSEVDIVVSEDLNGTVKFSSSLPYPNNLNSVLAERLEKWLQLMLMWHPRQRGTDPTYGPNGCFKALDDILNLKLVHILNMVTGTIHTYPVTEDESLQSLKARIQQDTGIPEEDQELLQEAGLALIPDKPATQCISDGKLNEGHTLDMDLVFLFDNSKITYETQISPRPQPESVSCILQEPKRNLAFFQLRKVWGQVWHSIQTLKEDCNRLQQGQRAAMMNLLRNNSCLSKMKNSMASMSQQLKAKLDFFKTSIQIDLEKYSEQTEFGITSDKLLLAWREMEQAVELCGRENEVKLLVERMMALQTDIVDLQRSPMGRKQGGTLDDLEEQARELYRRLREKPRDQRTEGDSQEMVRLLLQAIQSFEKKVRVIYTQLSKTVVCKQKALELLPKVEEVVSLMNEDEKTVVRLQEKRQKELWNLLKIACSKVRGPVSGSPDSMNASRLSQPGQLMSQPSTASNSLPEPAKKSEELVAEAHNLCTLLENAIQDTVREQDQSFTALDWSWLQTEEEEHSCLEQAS

[7] = biological target: PRKCB (UniProt P05771)
Sequence of PRKCB (P05771 whole entry, looked up): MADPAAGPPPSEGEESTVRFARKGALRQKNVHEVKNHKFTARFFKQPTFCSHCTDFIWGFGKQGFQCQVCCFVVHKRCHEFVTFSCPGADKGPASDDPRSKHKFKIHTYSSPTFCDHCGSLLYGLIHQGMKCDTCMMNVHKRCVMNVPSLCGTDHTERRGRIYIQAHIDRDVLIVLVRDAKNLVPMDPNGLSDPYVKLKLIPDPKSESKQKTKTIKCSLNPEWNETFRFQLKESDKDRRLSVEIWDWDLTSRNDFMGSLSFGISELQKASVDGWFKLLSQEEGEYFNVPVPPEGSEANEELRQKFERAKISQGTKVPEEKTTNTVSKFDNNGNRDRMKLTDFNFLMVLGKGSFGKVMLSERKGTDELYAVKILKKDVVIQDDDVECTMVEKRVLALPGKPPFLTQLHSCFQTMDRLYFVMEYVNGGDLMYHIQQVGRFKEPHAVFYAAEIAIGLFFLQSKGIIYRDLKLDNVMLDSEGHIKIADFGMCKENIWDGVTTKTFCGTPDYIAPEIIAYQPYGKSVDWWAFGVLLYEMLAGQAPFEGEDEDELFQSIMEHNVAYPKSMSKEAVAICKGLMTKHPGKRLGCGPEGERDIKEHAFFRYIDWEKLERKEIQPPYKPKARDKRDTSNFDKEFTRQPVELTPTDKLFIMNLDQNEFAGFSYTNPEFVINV

[8] = biological target: UniProt Q9Y2I7
[9] = biological target: FGR (UniProt P09769)
Sequence of FGR (P09769 whole entry, looked up): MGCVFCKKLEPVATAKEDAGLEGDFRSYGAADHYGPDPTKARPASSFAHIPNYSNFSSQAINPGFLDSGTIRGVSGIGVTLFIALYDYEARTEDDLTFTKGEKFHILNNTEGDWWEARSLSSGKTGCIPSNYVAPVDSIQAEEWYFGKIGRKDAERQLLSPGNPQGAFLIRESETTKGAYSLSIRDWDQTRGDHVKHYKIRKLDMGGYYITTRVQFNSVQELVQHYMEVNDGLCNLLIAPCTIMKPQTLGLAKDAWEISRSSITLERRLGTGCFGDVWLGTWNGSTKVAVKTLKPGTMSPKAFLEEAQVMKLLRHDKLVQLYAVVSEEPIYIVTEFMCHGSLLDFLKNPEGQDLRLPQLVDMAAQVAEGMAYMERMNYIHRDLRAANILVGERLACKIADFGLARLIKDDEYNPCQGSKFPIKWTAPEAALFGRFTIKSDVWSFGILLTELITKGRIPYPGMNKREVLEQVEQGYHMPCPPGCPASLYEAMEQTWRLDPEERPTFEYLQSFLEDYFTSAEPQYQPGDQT

[10] = biological target: UniProt Q9NYL2
Sequence of UniProt Q9NYL2 (Q9NYL2 whole entry, looked up): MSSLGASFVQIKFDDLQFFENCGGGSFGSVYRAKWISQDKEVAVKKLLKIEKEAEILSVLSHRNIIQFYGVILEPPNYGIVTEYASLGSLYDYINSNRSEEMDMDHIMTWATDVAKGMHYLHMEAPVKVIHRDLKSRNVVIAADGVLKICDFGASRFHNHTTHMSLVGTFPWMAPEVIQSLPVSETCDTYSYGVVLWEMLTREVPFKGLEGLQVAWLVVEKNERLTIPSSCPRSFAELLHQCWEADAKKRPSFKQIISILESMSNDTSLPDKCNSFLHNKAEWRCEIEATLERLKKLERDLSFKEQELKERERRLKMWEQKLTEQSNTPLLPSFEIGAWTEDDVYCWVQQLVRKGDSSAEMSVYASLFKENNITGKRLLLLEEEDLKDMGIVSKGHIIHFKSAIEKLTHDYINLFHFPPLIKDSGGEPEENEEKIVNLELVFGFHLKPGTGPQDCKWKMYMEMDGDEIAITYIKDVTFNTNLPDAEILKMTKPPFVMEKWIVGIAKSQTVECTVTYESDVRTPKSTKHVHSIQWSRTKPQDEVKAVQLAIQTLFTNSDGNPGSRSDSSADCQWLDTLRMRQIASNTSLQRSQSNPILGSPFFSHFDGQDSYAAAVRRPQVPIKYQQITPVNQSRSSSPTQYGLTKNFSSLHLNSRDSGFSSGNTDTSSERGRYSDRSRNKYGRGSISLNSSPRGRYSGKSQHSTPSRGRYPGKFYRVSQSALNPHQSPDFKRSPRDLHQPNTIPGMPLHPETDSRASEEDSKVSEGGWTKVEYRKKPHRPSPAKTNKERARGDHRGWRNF

[11] = biological target: SRC (UniProt P12931)
[12] = biological target: T3, SNRK (UniProt Q9NRH2)
T3 sequence (whole entry): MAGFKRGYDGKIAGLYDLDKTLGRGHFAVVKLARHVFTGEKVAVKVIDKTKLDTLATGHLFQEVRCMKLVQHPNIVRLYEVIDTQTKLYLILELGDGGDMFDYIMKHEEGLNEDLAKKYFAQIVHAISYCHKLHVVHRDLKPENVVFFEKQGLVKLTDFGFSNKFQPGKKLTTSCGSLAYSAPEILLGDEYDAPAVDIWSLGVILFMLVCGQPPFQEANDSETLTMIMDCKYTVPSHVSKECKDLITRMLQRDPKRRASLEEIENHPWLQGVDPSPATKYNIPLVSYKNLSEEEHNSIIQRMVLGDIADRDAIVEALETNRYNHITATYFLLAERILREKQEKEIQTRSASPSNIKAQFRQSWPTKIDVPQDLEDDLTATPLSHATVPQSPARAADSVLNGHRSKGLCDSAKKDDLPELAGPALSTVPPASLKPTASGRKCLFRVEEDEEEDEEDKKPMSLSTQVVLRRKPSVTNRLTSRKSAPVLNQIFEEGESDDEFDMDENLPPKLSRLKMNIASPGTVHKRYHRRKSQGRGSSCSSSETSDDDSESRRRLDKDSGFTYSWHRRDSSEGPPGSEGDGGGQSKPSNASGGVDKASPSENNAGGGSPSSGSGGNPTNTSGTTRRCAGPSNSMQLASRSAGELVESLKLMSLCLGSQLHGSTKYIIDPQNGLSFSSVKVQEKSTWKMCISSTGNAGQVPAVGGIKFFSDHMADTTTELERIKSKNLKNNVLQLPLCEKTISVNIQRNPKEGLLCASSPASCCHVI

[13] = biological target: UniProt Q5TCX8
[14] = biological target: SRPK1 (UniProt Q96SB4)
[15] = biological target: UniProt Q15418
[16] = biological target: UniProt Q05655
Sequence of UniProt Q05655 (Q05655 whole entry, looked up): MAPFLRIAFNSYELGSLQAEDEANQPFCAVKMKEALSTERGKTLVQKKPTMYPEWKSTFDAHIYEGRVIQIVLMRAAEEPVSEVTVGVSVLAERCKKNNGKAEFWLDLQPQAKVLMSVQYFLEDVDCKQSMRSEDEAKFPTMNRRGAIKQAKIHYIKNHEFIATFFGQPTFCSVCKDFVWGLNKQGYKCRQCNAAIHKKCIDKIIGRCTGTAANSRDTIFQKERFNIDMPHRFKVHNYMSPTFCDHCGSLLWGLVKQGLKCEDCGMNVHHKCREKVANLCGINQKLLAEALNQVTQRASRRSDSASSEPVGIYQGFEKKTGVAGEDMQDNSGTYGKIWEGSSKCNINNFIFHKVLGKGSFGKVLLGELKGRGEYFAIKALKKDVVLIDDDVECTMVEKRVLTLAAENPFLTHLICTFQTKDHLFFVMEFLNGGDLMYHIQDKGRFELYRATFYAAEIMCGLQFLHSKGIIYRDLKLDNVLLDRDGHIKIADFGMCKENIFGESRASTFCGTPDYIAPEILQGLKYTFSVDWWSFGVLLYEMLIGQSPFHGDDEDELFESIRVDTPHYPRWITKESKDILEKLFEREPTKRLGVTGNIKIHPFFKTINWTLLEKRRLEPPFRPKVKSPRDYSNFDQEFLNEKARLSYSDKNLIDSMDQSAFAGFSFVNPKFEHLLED

In the case of `CCc1cnn2c(NCc3ccc[n+]([O-])c3)cc(N3CCCC[C@H]3CCO)nc12` [dinaciclib], the pIC50 [1] is reported as less than 4.52, the pIC50 [2] is reported as 6.39 and the pIC50 [3] is reported as less than 4.52. The pIC50 [4] was less than 4.52, the pIC50 [5] was less than 4.52 and the pIC50 [6] was less than 4.52. It also gave a pIC50 [7] of less than 4.52, a pIC50 [8] of less than 4.52 and a pIC50 [9] of less than 4.52. The pIC50 [10] was less than 4.52, the pIC50 [11] was less than 4.52 and the pIC50 [12] was less than 4.52. For the same molecule, the pIC50 [13] was less than 4.52, the pIC50 [14] was less than 4.52 and the pIC50 [15] was less than 4.52. The pIC50 [16] was less than 4.52.
